# Tests used:
# [1] = system: sarcoidosis patients with chronic cutaneous lesions despite systemic therapy; test: Open label clinical study, Sarcoidosis Activity and Severity Index (SASI); type: in vivo, human; conditions: for SASI induration score, median (range): 43 areas with induration, baseline median 2 (0-4), p<0.005, scale 0 to 4
# Experimental: An open label study of sarcoidosis patients with chronic cutaneous lesions despite systemic therapy was performed to determine the safety and efficacy of (+)-2-[1-(3-ethoxy-4-methoxyphenyl)-2-methanesulfonylethyl]-4-acetylaminoisoindolin-1,3-dione therapy. Patients were on a stable treatment regimen (corticosteroids, methotrexate (max 10 mg/week), azathioprine, hydroxychloroquine, cyclophosphamide, minocycline, doxycycline, chloroquine) for at least three months prior to study entry. Patients were assessed by a previously validated scoring system for cutaneous sarcoidosis: Sarcoidosis Activity and Severity Index (SASI). Individual scores were made for erythema, induration, and desquamation on a scale of 0 to 4. For an individual area of the body, the percentage of involvement for sarcoidosis lesions was scored on a scale from 0 to 7. After establishing a baseline SASI score, patients began treatment with (+)-2-[1-(3-ethoxy-4-methoxyphenyl)-2-methanesulfonylethyl]-4-acetylaminoisoindolin-1,3-dione 20 mg twice a day over the next 12 weeks. A SASI score was determined by the same investigator at baseline and weeks 4 and 12 of treatment.
# Thirteen patients completed 16 weeks of study, including 12 weeks of active drug therapy. […] Among the 13 patients, there were 59 areas with one or more positive SASI feature during treatment. Among the 43 areas with induration, there was a significant drop in the SASI score from baseline (median 2 (0-4)) after 4 weeks (median 1 (0-3), p<0.005) and 12 weeks (median 1 (0-3), p<0.005) therapy.
# [2] = system: Phosphodiesterase 4 enzyme purified from U937 human monocytic cells; test: Inhibition of PDE4 (phosphodiesterase reaction with [3H]-cAMP); type: biochemical; conditions: 1 μM cAMP plus 10 nM [3H]-cAMP, 45 min at 30° C., pH 7.5
# Experimental: Phosphodiesterase 4 enzyme was purified from U937 human monocytic cells by gel filtration chromatography, and phosphodiesterase reactions were carried out as previously described. See, e.g., Muller et al., Bioorg. Med. Chem. Lett., 1998, 8(19): 2669-2674. Briefly, reactions were carried out in 96-well deep-well plates in 50 mM Tris HCl pH 7.5, 5 mM MgCl2, 1 μM cyclic adenosine monophosphate (cAMP), plus 10 nM [^3H]-cAMP for 45 min at 30° C. The reactions were terminated by boiling, treated with 1 mg/ml snake venom, and separated using AG-1X8 ion exchange resin (BioRad). Reactions consumed less than 15% of available substrate.
smiles,measurement,setting,value
"CCOc1cc([C@@H](CS(C)(=O)=O)N2C(=O)c3cccc(NC(C)=O)c3C2=O)ccc1OC [(+)-2-[1-(3-ethoxy-4-methoxyphenyl)-2-methanesulfonylethyl]-4-acetylaminoisoindolin-1,3-dione]",change in SASI area of involvement during therapy,"[1]; 20 mg twice a day, 12 weeks",no significant change
same,change in SASI desquamation during therapy,"[1]; 20 mg twice a day, 12 weeks",no significant change
same,change in SASI erythema during therapy,"[1]; 20 mg twice a day, 12 weeks",no significant change
same,tolerability,"[1]; 20 mg twice a day, 12 weeks, 13 patients",well tolerated
same,discontinuation of drug treatment,"[1]; 13 patients, 12 weeks of active drug therapy",No patient discontinued
same,"SASI induration score, median (range)","[1]; after 4 weeks therapy, 20 mg twice a day",1 (0-3)
same,"SASI induration score, median (range)","[1]; after 12 weeks therapy, 20 mg twice a day",1 (0-3)
same,"patients with dose reduced by 50% (one for nausea, the other for feeling jittery)","[1]; of 13 patients, continued on the reduced dose",two
same,improvement in skin induration,[1]; within 4 weeks of institution of therapy,significant improvement
same,IC50,[2],73.5 nM
